Experimental findings from US7473697B2, “2-Oxo-piperidinyl- and 2-oxo-azepanyl alkanoic acid derivatives for the treatment of epilepsy and other neurological disorders” (UCB S.A., priority 2001, dated 2009) are described below.

Structures are written as SMILES. pKi: −log10 of the molar value. Like-named read-outs stand apart in the source and are kept apart here.

The test system of assay [1] is sound-susceptible mice (audiogenic seizures, clonic convulsions). As to the kind of experiment: Audiogenic seizure test in sound-susceptible mice. The following applies: for ED50: Mus musculus. The class given is in vivo. From the text: The objective of this test is to evaluate the anticonvulsant potency of a compound in sound-susceptible mice, a genetic animal model with reflex seizures. In this model of primary generalised epilepsy, seizures are evoked without electrical or chemical stimulation and the seizure types are, at least in part, similar in their clinical phenomenology to seizures occurring in man (Löscher W. & Schmidt D., Epilepsy Res. (1998), 2, 145-181: Buchhalter J. R , Epilepsia (1993), 34, S31-S41).
Male or female genetically sound-sensitive mice (14-28 g; N=10), derived from a DBA strain originally selected by Dr. Lehmann of the Laboratory of Acoustic Physiology (Paris) and bred in the UCB Pharma Sector husbandry unit since 1978, were used. The experimental design consisted of several groups, one group receiving the vehicle control and the other groups different doses of the test-compound. The compounds were administered intraperitoneally 60 minutes before the induction of audiogenic seizures.
For testing, the animals were placed in small cages, one mouse per cage, in a sound-attenuated chamber. After a period of orientation of 30 seconds, the acoustic stimulus (90 dB, 10-20 kHz) was delivered for 30 seconds via loudspeakers positioned above each cage. During this interval, the mice were observed and the presence of the 3 phases of the seizure activity namely wild running, clonic and tonic convulsions, was recorded. The proportion of mice protected against wild running, clonic and tonic convulsions, respectively, was calculated.
For active compounds, an ED50 value, i.e. the dose (expressed in moles per kg of test animal) producing 50% protection relative to the control group, together with 95% confidence limits, was calculated using a Probit Analysis (SAS/STAT® Software, version 6.09, PROBIT procedure) of the proportions of protected mice for each of the 3 phases of the seizure activity.
In tables I-A and I-B the ED50 value (=AUD CC) for the inhibition of Clonic Convulsions in the Audiogenic seizure test are given. This test is a good animal model for the screening of anticonvulsant and/or antiepileptic compounds.

For assay [2], the target named is T1, Levetiracetam Binding Site (LBS) (Rattus norvegicus, UniProt Q02563).
T1 construct: from tissue; host or cells: rat cerebral cortex crude membranes (male Sprague-Dawley)
Kind of assay: Competitive binding to levetiracetam binding site (LBS), radioligand [3H]-2-[4-(3-azidophenyl)-2-oxo-1-pyrrolidinyl]butanamide, cerebral cortex membranes. The protocol:
The inhibition constant (Ki) of a compound is determined in competitive binding experiments by measuring the binding of a single concentration of a radioactive ligand at equilibrium with various concentrations of the unlabeled test substance. The concentration of the test substance inhibiting 50% of the specific binding of the radioligand is called the IC50. The equilibrium dissociation constant Ki is proportional to the IC50 and is calculated using the equation of Cheng and Prusoff (Cheng Y. et al., Biochem. Pharmacol. (1972), 22, 3099-3108).
The concentration range usually encompasses 6 log units with variable steps (0.3 to 1 log). Assays are performed in mono- or duplicate, each Ki determination is performed on two different samples of test substance. Cerebral cortex from 200-250 g male Sprague-Dawley rats were homogenised using a Potter S homogeniser (10 strokes at 1,000 rpm; Braun, Germany) in 20 mmol/l Tris-HCl (pH 7.4), 250 mmol/l sucrose (buffer A); all operations were performed at 4° C. The homogenate was centrifuged at 30,000 g for 15 min. The crude membrane pellet obtained was resuspended in 50 mmol/1 Tris-HCl (pH 7.4), (buffer B) and incubated 15 min at 37° C., centrifuged at 30,000 g for 15 min and washed twice with the same buffer. The final pellet was resuspended in buffer A at a protein concentration ranging from 15 to 25 mg/ml and stored in liquid nitrogen.
Membranes (150-200 μg of protein/assay) are incubated at 4° C. for 120 min in 0.5 ml of a 50 mmol/l Tris-HCl buffer (pH 7.4) containing 2 mmol/l MgCl2, 1 to 2.10^−9 mol/l of [^3H]-2-[4-(3-azidophenyl)-2-oxo-1-pyrrolidinyl]butanamide (levetiracetam analog, a tritiated radioligand currently used for the labelling of LBS), and increasing concentrations of the test substance. The non specific binding (NSB) is defined as the residual binding observed in the presence of a concentration of reference substance (e.g. 10^−3 mol/l levetiracetam) that binds essentially all the receptors. Membrane-bound and free radioligands are separated by rapid filtration through glass fiber filters (equivalent to Whatman GF/C or GF/B; VEL, Belgium) pre-soaked in 0.1% polyethyleneimine and 10^−3 mol/l levetiracetam to reduce non specific binding. Samples and filters are rinsed by at least 6 ml of 50 mmol/l Tris-HCl (pH 7.4) buffer. […] The radioactivity trapped onto the filters is counted by liquid scintillation in a β-counter (Tri-Carb 1900 or TopCount 9206, Camberra Packard, Belgium, or any other equivalent counter). Data analysis is perfomed by a computerized non linear curve fitting method using a set of equations describing several binding models assuming populations of independent non-interacting receptors which obey to the law of mass.

The mark [3] stands for this setting: 6-ring compounds, intraperitoneally 60 minutes before induction, inactive = inactive at 1.0E−03.
[4] abbreviates: 6-ring compounds, rat cerebral cortex membranes.
Setting [5] is: 7-ring compounds, intraperitoneally 60 minutes before induction, inactive = inactive at 1.0E−03.
Setting [6] is: 7-ring compounds, rat cerebral cortex membranes.

T1 sequence (Q02563 whole entry): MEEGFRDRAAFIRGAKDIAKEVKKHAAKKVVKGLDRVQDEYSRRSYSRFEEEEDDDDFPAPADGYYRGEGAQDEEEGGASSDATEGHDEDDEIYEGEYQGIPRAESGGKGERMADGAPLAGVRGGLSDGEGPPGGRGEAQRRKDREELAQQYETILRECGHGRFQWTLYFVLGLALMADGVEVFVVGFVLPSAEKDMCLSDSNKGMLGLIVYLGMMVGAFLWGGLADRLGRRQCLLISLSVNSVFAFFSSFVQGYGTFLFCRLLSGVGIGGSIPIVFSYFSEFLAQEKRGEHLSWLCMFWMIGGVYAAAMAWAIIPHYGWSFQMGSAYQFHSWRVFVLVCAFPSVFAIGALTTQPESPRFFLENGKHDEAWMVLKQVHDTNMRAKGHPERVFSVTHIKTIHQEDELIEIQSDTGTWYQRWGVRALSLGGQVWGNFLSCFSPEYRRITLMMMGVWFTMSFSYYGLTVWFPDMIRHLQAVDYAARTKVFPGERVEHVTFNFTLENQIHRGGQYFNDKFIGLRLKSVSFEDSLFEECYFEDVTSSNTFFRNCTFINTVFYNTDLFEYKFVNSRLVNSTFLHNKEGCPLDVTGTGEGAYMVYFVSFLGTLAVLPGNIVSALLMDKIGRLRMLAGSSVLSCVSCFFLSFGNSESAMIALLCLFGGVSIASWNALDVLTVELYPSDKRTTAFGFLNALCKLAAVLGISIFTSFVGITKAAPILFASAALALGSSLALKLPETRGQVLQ

In the case of `CC[C@@H](C(N)=O)N1CCC(CI)CC1=O` (stereo partly drawn) [Compound 15, (2S)-2-[4-(iodomethyl)-2-oxo-1-piperidinyl]butanamide], in assay [1] (setting [3]), the “AUD CC (ED50 for inhibition of Clonic Convulsions in the Audiogenic seizure test)” value came out at 0.00025 mol/kg. The PKi result in assay [2] (setting [4]) is “+++ (+++ = 6.5 ≦ pKi < 7.5)”.
In the case of `CCC(C(N)=O)N1CC(c2ccccc2)CCC1=O` (stereo not shown) [Compound 12, 2-(2-oxo-5-phenyl-1-piperidinyl)butanamide], the “AUD CC (ED50 for inhibition of Clonic Convulsions in the Audiogenic seizure test)” value in assay [1] (ip) was “Inactive”.
Regarding `CC[C@@H](C(N)=O)N1CCC(CI)CC1=O` (stereo partly drawn) [Compound 13, (2S)-2-[4-(iodomethyl)-2-oxo-1-piperidinyl]butanamide], the “AUD CC (ED50 for inhibition of Clonic Convulsions in the Audiogenic seizure test)” value in assay [1] (setting [3]) turned out to be 0.00011 mol/kg. The same compound had a pKi in assay [2] (setting [4]) of 6.50 to 7.50.
`CCC(C(N)=O)N1CCC(CI)CCC1=O` (single isomer, unassigned) [Compound 20, 2-[5-(iodomethyl)-2-oxo-1-azepanyl]butanamide]: the “AUD CC (ED50 for inhibition of Clonic Convulsions in the Audiogenic seizure test)” value in assay [1] (setting [5]) came to 0.00056 mol/kg. In assay [2] (setting [6]), this compound gave a negative-log Ki (pKi) of 5.50 to 6.50.
As for `CCC(C(N)=O)N1CC(c2ccccc2)CCC1=O` (stereo not shown) [Compound 11, 2-(2-oxo-5-phenyl-1-piperidinyl)butanamide], the “AUD CC (ED50 for inhibition of Clonic Convulsions in the Audiogenic seizure test)” value in assay [1] (ip) is 7e-05 mol/kg. Moreover, the negative logarithm of the Ki (pKi) in assay [2] (setting [4]) was 6.50 to 7.50.
Regarding `CCC(C(N)=O)N1CCC(CI)CCC1=O` (single isomer, unassigned) [Compound 18, 2-[5-(iodomethyl)-2-oxo-1-azepanyl]butanamide], the “AUD CC (ED50 for inhibition of Clonic Convulsions in the Audiogenic seizure test)” value in assay [1] (setting [5]) was 0.00013 mol/kg. In addition, the negative logarithm of the Ki (pKi) in assay [2] (setting [6]) was 6.50 to 7.50.
Regarding `CCC(C(N)=O)N1CC(c2ccccc2)CCC1=O` (stereo not shown) [Compound 10, 2-(2-oxo-5-phenyl-1-piperidinyl)butanamide], the “AUD CC (ED50 for inhibition of Clonic Convulsions in the Audiogenic seizure test)” value in assay [1] (ip) is “Inactive”.
Regarding `CC[C@H](C(N)=O)N1CCC(CI)CC1=O` (stereo partly drawn) [Compound 14, (2R)-2-[4-(iodomethyl)-2-oxo-1-piperidinyl]butanamide], in assay [1] (setting [3]), the “AUD CC (ED50 for inhibition of Clonic Convulsions in the Audiogenic seizure test)” value is on record as “Inactive”.
The compound `CCC(C(N)=O)N1CCC(CI)CCC1=O` (single isomer, unassigned) [Compound 17, 2-[5-(iodomethyl)-2-oxo-1-azepanyl]butanamide] had a negative logarithm of the Ki (pKi) in assay [2] (setting [6]) of less than 5.50.
Take `CC[C@@H](C(N)=O)N1CC(CN=[N+]=[N-])CCC1=O` (stereo partly drawn) [Compound 7, (2S)-2-[5-(azidomethyl)-2-oxo-1-piperidinyl]butanamide]: the “AUD CC (ED50 for inhibition of Clonic Convulsions in the Audiogenic seizure test)” value in assay [1] (ip) came to 0.00012 mol/kg. This compound had a pKi in assay [2] (setting [4]) of 6.50 to 7.50.
In the case of `CCC(C(N)=O)N1CC(c2ccccc2)CCC1=O` (stereo not shown) [Compound 9, 2-(2-oxo-5-phenyl-1-piperidinyl)butanamide], in assay [1] (ip), the “AUD CC (ED50 for inhibition of Clonic Convulsions in the Audiogenic seizure test)” value worked out at 0.00028 mol/kg.
As to `CC[C@@H](C(N)=O)N1CC(CI)CCC1=O` (stereo partly drawn) [Compound 6, (2S)-2-[5-(iodomethyl)-2-oxo-1-piperidinyl]butanamide], the “AUD CC (ED50 for inhibition of Clonic Convulsions in the Audiogenic seizure test)” value in assay [1] (setting [3]) turned out to be 0.0002 mol/kg. The compound also gave a negative-log Ki (pKi) in assay [2] (setting [4]) of 6.50 to 7.50.
Turning to `CC[C@@H](C(N)=O)N1CC(CN=[N+]=[N-])CCC1=O` (stereo partly drawn) [Compound 8, (2S)-2-[5-(azidomethyl)-2-oxo-1-piperidinyl]butanamide], the “AUD CC (ED50 for inhibition of Clonic Convulsions in the Audiogenic seizure test)” value in assay [1] (ip) was found to be 0.00028 mol/kg. Moreover, the pKi in assay [2] (setting [4]) is 5.50 to 6.50.
As to `CC[C@@H](C(N)=O)N1CCCC1=O` [levetiracetam, (S)-(−)-α-ethyl-2-oxo-1-pyrrolidineacetamide, reference compound], the median effective dose (ED50) in assay [1] (reference compound, clonic convulsions, audiogenic seizure test, read-out: ED50 CC) stood at 180 µmol/kg. In assay [2] (reference), this compound had a pKi of 6.10.
As for `CC[C@H](C(N)=O)N1CCC(CI)CC1=O` (stereo partly drawn) [Compound 16, (2R)-2-[4-(iodomethyl)-2-oxo-1-piperidinyl]butanamide], the “AUD CC (ED50 for inhibition of Clonic Convulsions in the Audiogenic seizure test)” value in assay [1] (setting [3]) is “Inactive”.
As to `CC[C@@H](C(N)=O)N1CC(CI)CCC1=O` (stereo partly drawn) [Compound 5, (2S)-2-[5-(iodomethyl)-2-oxo-1-piperidinyl]butanamide], the 50% effective dose (ED50) in assay [1] (ip, read-out: AUD CC (ED50 for inhibition of Clonic Convulsions in the Audiogenic seizure test), 6-ring compounds, intraperitoneally 60 minutes before induction, inactive = inactive at 1.0E−03) stood at 160 µmol/kg. The compound also showed a pKi in assay [2] (setting [4]) of 5.50 to 6.50.
Turning to `CCC(C(N)=O)N1CCC(CI)CCC1=O` (single isomer, unassigned) [Compound 19, 2-[5-(iodomethyl)-2-oxo-1-azepanyl]butanamide], the “AUD CC (ED50 for inhibition of Clonic Convulsions in the Audiogenic seizure test)” value in assay [1] (setting [5]) was “Inactive”. The pKi in assay [2] (setting [6]) was less than 5.50.
